According to patent US20020111274A1, “1-alkyl-3-[1-(substituted phenyl) benzotriazol-6-yl] uracils” (BASF Aktiengesellschaft, priority 2000, published 2002):

Key:
Set-up in all cases: scale not given here
[1] = system: GALAP Galium; experiment: Postemergence herbicidal evaluation, GALAP; format: in vivo, Galium aparine; details: postemergence spray, rated about two-three weeks after treatment
In short: (§1)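 Postemergence spray, 40 psi nozzle, on ~2-week seedlings. Carrier: acetone/water 80/20, 1.0% methylated seed oil; dose ~0.006–0.400 kg/ha. Scored visually at 2–3 weeks.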

[2] = system: TRZAWR Wheat, Winter, cv Riband; experiment: Postemergence herbicidal evaluation, TRZAWR; format: in vivo, Triticum aestivum; details: postemergence spray, rated about two-three weeks after treatment
In short: as §1

[3] = system: CASOB Sicklepod; experiment: Postemergence herbicidal evaluation, CASOB; format: in vivo, Cassia obtusifolia, L.; details: postemergence spray, rated about two-three weeks after treatment
In short: as §1

[4] = system: CASOB Sicklepod; experiment: Preemergence herbicidal evaluation, CASOB; format: in vivo, Cassia obtusifolia, L.; details: preemergence
In short: (§2)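 Visual ratings were taken four to five weeks after application. Before that, cups sown with seed in potting soil received a spray of compound dissolved in aqueous acetone, equivalent to about 0.013 to 0.800 kg/ha, and stood on greenhouse benches under conventional care.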

[5] = system: ORYSAT Rice, Tebonnet; experiment: Postemergence herbicidal evaluation, ORYSAT; format: in vivo, Oryza sativa, (L.); details: postemergence spray, rated about two-three weeks after treatment
In short: as §1

[6] = system: GALAP Galium; experiment: Preemergence herbicidal evaluation, GALAP; format: in vivo, Galium aparine; details: preemergence
In short: as §2

[7] = system: GLXMAW Soybean, Williams; experiment: Preemergence herbicidal evaluation, GLXMAW; format: in vivo, Glycine max, (L.) Merr. cv Williams; details: preemergence
In short: as §2

[8] = system: ABUTH Velvetleaf; experiment: Preemergence herbicidal evaluation, ABUTH; format: in vivo, Abutilon theophrasti, Medic.; details: preemergence
In short: as §2

[9] = system: IPOHE Morningglory, Ivyleaf; experiment: Preemergence herbicidal evaluation, IPOHE; format: in vivo, Ipomoea hederacea, (L.) Jacq.; details: preemergence
In short: as §2

[10] = system: GLXMAW Soybean, Williams; experiment: Postemergence herbicidal evaluation, GLXMAW; format: in vivo, Glycine max, (L.) Merr. cv Williams; details: postemergence spray, rated about two-three weeks after treatment
In short: as §1

[11] = system: SETVI Foxtail, Green; experiment: Postemergence herbicidal evaluation, SETVI; format: in vivo, Setaria viridis, (L.) Beau; details: postemergence spray, rated about two-three weeks after treatment
In short: as §1

[12] = system: ECHOG Barnyardgrass; experiment: Postemergence herbicidal evaluation, ECHOG; format: in vivo, Echinochloa crus-galli, (L.) Beau; details: postemergence spray, rated about two-three weeks after treatment
In short: as §1

[13] = system: SETVI Foxtail, Green; experiment: Preemergence herbicidal evaluation, SETVI; format: in vivo, Setaria viridis, (L.) Beau; details: preemergence
In short: as §2

## CCc1cccc(-n2nnc3cc(F)c(-n4c(=O)cc(C(F)(F)F)n(C)c4=O)cc32)c1 [Example 29, 3-[1-(3-ethylphenyl)-5-fluoro-1H-1,2,3-benzotriazol-6-yl]-1-methyl-6-(trifluoromethyl)-2,4(1H,3H)-pyrimidinedione]
[1]; 0.032 kg/ha
  Postemergence herbicidal rating GALAP: 1.0
[1]; 0.062 kg/ha
  Postemergence herbicidal rating GALAP: 3.0
[2]; 0.008 kg/ha
  Postemergence herbicidal rating TRZAWR: 2.0
[2]; 0.016 kg/ha
  Postemergence herbicidal rating TRZAWR: 2.0
[2]; 0.032 kg/ha
  Postemergence herbicidal rating TRZAWR: 2.5
[2]; 0.062 kg/ha
  Postemergence herbicidal rating TRZAWR: 3.0
[3]; 0.008 kg/ha
  Postemergence herbicidal rating CASOB: 0.0
[3]; 0.016 kg/ha
  Postemergence herbicidal rating CASOB: 2.0
[3]; 0.032 kg/ha
  Postemergence herbicidal rating CASOB: 2.0
[3]; 0.062 kg/ha
  Postemergence herbicidal rating CASOB: 3.0
[4]; rate 0.016 kg/ha
  CASOB herbicidal rating: 1.0
[4]; rate 0.125 kg/ha
  CASOB herbicidal rating: 1.0
[5]; 0.008 kg/ha
  Postemergence herbicidal rating ORYSAT: 2.0
[5]; 0.016 kg/ha
  Postemergence herbicidal rating ORYSAT: 2.0
[5]; 0.032 kg/ha
  Postemergence herbicidal rating ORYSAT: 2.0
[5]; 0.062 kg/ha
  Postemergence herbicidal rating ORYSAT: 3.0
[6]; rate 0.016 kg/ha
  GALAP herbicidal rating: 0.0
[6]; rate 0.032 kg/ha
  GALAP herbicidal rating: 0.0
[6]; rate 0.062 kg/ha
  GALAP herbicidal rating: 1.0
[6]; rate 0.125 kg/ha
  GALAP herbicidal rating: 8.0
[7]; rate 0.016 kg/ha
  GLXMAW herbicidal rating: 0.0
[7]; rate 0.032 kg/ha
  GLXMAW herbicidal rating: 1.0
[7]; rate 0.062 kg/ha
  GLXMAW herbicidal rating: 4.0
[7]; rate 0.125 kg/ha
  GLXMAW herbicidal rating: 5.0
[8]; rate 0.016 kg/ha
  ABUTH herbicidal rating: 6.0
[8]; rate 0.032 kg/ha
  ABUTH herbicidal rating: 9.0
[8]; rate 0.062 kg/ha
  ABUTH herbicidal rating: 9.0
[8]; rate 0.125 kg/ha
  ABUTH herbicidal rating: 9.0
[9]; rate 0.016 kg/ha
  IPOHE herbicidal rating: 0.0
[9]; rate 0.032 kg/ha
  IPOHE herbicidal rating: 3.0
[9]; rate 0.062 kg/ha
  IPOHE herbicidal rating: 6.0
[9]; rate 0.125 kg/ha
  IPOHE herbicidal rating: 7.0
[10]; 0.008 kg/ha
  Postemergence herbicidal rating GLXMAW: 5.0
[10]; 0.016 kg/ha
  Postemergence herbicidal rating GLXMAW: 6.5
[10]; 0.032 kg/ha
  Postemergence herbicidal rating GLXMAW: 8.0
[10]; 0.062 kg/ha
  Postemergence herbicidal rating GLXMAW: 8.0
[11]; 0.008 kg/ha
  Postemergence herbicidal rating SETVI: 1.0
[11]; 0.016 kg/ha
  Postemergence herbicidal rating SETVI: 7.0
[11]; 0.032 kg/ha
  Postemergence herbicidal rating SETVI: 9.0
[11]; 0.062 kg/ha
  Postemergence herbicidal rating SETVI: 9.0
[12]; 0.008 kg/ha
  Postemergence herbicidal rating ECHCG: 1.0
[12]; 0.016 kg/ha
  Postemergence herbicidal rating ECHCG: 1.0
[12]; 0.032 kg/ha
  Postemergence herbicidal rating ECHCG: 1.0
[12]; 0.062 kg/ha
  Postemergence herbicidal rating ECHCG: 1.0
[13]; rate 0.016 kg/ha
  SETVI herbicidal rating: 6.0
[13]; rate 0.032 kg/ha
  SETVI herbicidal rating: 9.0
[13]; rate 0.062 kg/ha
  SETVI herbicidal rating: 9.0
[13]; rate 0.125 kg/ha
  SETVI herbicidal rating: 9.0
